{
  "source": "patent US20050054027A1",
  "about": "(priority 2003, published 2005)",
  "test_system": "TMPRSS6",
  "assay": "Inhibition of TMPRSS6 protease activity (cleavage of fluorogenic substrate Ac-RKFK-acc)",
  "type": "biochemical, human",
  "details": "2 nM enzyme, 15 min preincubation at room temperature, inhibition constant only in FIG. 4",
  "method": "The putative catalytic domain of TMPRSS6 minus the pro region was cloned into pFastBac1 (Invitrogen) from a human cDNA library. […] The vector also contains a C-terminal 6His tag to facilitate purification and an N-terminal honeybee melittin secretion signal. Recombinant bacmid was produced using Bac-to-Bac transposition technology (Invitrogen). Sf9 cells (Invitrogen) were then transfected with recombinant bacmid to produce rAcNPV.\nProtease activity of the purified TMPRSS6 was assessed by monitoring the accumulation of the fluorophore 7-amino-4-carbamoylmethylcoumarin (acc) produced by the cleavage of the tetrapeptide substrate Ac-RKFK-acc in assay buffer (50 mM Tris-Cl pH 7.4, 200 mM NaCl, 2 mM CaCl2, 0.01% Tween 20) at 37 C. Data was collected with a Gemini EM plate reader (Molecular Devices) at λex=380 nm and λem=450 nm.\nA 1 mM DMSO solution of camostat mesylate was diluted serially 1:3 in DMSO to a final concentration of 5.6 nM. The TMPRSS6 enzyme was diluted in assay buffer to 2 nM. 1 μl of each camostat dilution was added to 98 μl of the enzyme mixture in a 96 well assay plate (Dynex). The plate was incubated for 15 min at room temperature to allow equilibrium to take place between the enzyme and inhibitor. Afterward, 1 μl of a 1 mM solution of a substrate, Ac-RKFK-acc, was added to each well. […] The inhibition constant was calculated using Prism (GraphPad).",
  "note": "Counter-ions that a name gives are not always drawn.",
  "data": [
    {"smiles": "CN(C)C(=O)COC(=O)Cc1ccc(OC(=O)c2ccc(NC(=N)N)cc2)cc1", "note": "[camostat mesylate]", "values": [
      {"measurement": "inhibition of TMPRSS6 protease activity", "result": "inhibited"}
    ]}
  ]
}
